In patent publication US6130250A, “Veterinary use of a pleuromutilin derivative” (priority 1996, dated 2000):
Counter-ions that a name gives are not always drawn. Like-named read-outs stand apart in the source and are kept apart here.

Legend:
S. hyodysenteriae [1] = assay: Further challenge trial: treatment of swine dysentery; assay type: in vivo, pigs
Excerpt: A group of 60 (3.5 to 4 weeks old) conventionally reared pigs are fed unmedicated food for 14 days then challenged by the oral route with the standard strain of S. hyodysenteriae (P18A). When clinical signs of disease are evident, pigs are allocated to six treatment groups of 8 pigs per group and fed antibiotic containing feed for 10 days, then unmedicated food for a further 14 days. Valnemulin hydrochloride is fed at 50, 75, 100 and 150 ppm and compared with tiamulin hydrogen fumarate fed at 100 ppm and with unmedicated controls. Pigs with a range of clinical signs of disease are included in each treatment group. After allocation to the treatment groups the evidence of clinical disease is assessed daily and a clinical score assigned, rectal swabs are taken twice weekly for isolation of S. hyodysenteriae and all pigs are weighed at regular intervals. Food intake is also recorded. A post-mortem examination is carried out 24 days after challenge and the large intestine of each pig examined for the presence of lesions. Mucosal scrapings are also taken from 4 areas in the large intestine and cultured for S. hyodysenteriae.

S. hyodysenteriae [2] = conditions: cited from earlier work
Mycoplasma gallisepticum = assay: Challenge study, treatment of Mycoplasma gallisepticum infection; assay type: in vivo, male broiler chicks; conditions: for mortality: valnemulin all three concentrations, tiamulin 0.05%
Excerpt: Groups of male broiler chicks are infected with a virulent strain of Mycoplasma gallisepticum (MG) and each group medicated respectively with valnemulin at a concentration of 0.0125%, 0.025%, 0.05%, tiamulin at the same concentration, tylosin 0.05% and a […], spectinomycin combination (Linco-Spectin) 0.083%. There is also one infected group left untreated and an uninfected group. The chicks are infected at two days of age by the injection of 3.4×10^5 organisms into each lung. Medication in the drinking water is commenced 24 hours later for three successive days except for Linco-Spectin with which treatment was continued for 5 days.

S. hyodysenteriae [3] = assay: MIC determination by agar dilution, 10 strains from porcine faeces; assay type: cell-based, Serpulina hyodysenteriae; conditions: for MIC: Brachyspira hyodysenteriae
Experimental: Minimum inhibitory concentrations (MICs) are determined against 10 strains of S. hyodysenteriae isolated from porcine faeces, by the agar dilution method. NCTC (National Collection of Type Cultures) strains or reference strains are used as controls in all MIC tests. The agar medium for S. hyodysenteriae consists of BAB2 (Unipath CM271) containing 7% whole defibrinated sterile sheep blood. All antimicrobial agents are tested in doubling dilutions. Prepared antibiotic dilutions are added to an appropriate volume of MH agar, previously cooled to 50° C., mixed and 20 ml volumes poured. All S. hyodysenteriae incubations are performed in an anaerobic work station at 37° C. (+/-0.5° C.) (Don Whitley Scientific) which provides a strict anaerobic atmosphere comprising 80% nitrogen, 10% hydrogen and 10% carbon dioxide. All other incubations are performed at 37° C. All strains are incubated in an […] atmosphere at 37° C. for 24 hours. The numbers of the organisms are adjusted to an optical density (OD) equivalent to 1×10^8 colony forming units (cfu) per ml, using MH broth as a blank. The antibiotic containing plates are inoculated in duplicate using a multipoint inoculator (Denley Instruments) which delivers a plate inoculum of approximately 1 μl giving an inoculum of 10^4 -10^5 cfu per spot for all strains (Amon, J. Antimicrob. Chemother. 21 [1988] 701-710; Ericsson et al., Acta Pathol. Microbiol. et Immunol. Scand. 217 [1971] (B) Suppl., 1-90). Control plates are incubated under the same conditions as the test plates. The MICs are read after 24 and 48 hours, the latter being the definitive reading. The MIC is defined as the lowest concentration of antibiotic on which there is no growth, disregarding a single colony or a faint haze caused by the inoculum (National Committee for Clinical Laboratory Standards [1989], Antimicrobial Susceptibility Testing, NCCLC Publications SC3, Villanova, Pa., USA).

[4] = system: Haemophilus pleuropneumoniae; assay: MIC against Haemophilus pleuropneumoniae isolates; assay type: cell-based; conditions: for MIC: Actinobacillus pleuropneumoniae, 10 isolates
Experimental: The minimal inhibitory concentration (MIC) of valnemulin hydrochloride against recent isolates of Pasteurelia multocida, Haemophilus pleuropneumoniae and Haemophilus parasuis originating from porcine respiratory material is determined and compared with tiamulin. […] Three of the Pasteurella isolates were toxigenic strains of Pasteurella multocida. For H. pleuropneumoniae and H. parasuis, on the day before testing a single loopful of each of the pure cultures is inoculated into 10 ml of Todd & Hewitt broth (Unipath CM190) containing 1% donor calf serum and 2 mg per ml of nicotinamide adenine dinucleotide (NAD). For P. multocida, […] a single loopful of each of the pure cultures is inoculated into 10 ml of nutrient broth No. 2 (Unipath CM67) containing 1% donor calf serum. Each of the prepared broth cultures are incubated for 18 hours at 37° C. in 10% CO2. […] For each test compound, standard control cultures of Oxford Staphylococcus aureus NCTC 6571 are also set up to validate the results of the MIC tests. In each case, broth cultures set up from the control organisms are identical to those of the organisms under test. Valnemulin is a hydrochloride, tiamulin is used as the hydrogen fumarate. […] Sensitised agar (Oxoid CM409) containing lysed horse blood (Oxoid SR50) is prepared according to the manufacturer's recommendations and adjusted to pH 7.4 it necessary. […] Four replicate plates are prepared from each dilution. […] After inoculation the growth of the organisms is examined initially by eye followed by microscopic examination on a stereo zoom microscope. The MIC value is taken as the lowest concentration of test compound at which no growth can be detected at the point of inoculation on all four plates by microscopic examination.

[5] = tiamulin 100 ppm, treatment period

C=C[C@]1(C)C[C@@H](OC(=O)CSCCN(CC)CC)[C@]2(C)[C@H](C)CC[C@]3(CCC(=O)[C@H]32)[C@@H](C)[C@@H]1O [tiamulin hydrogen fumarate]
day by which improvement was seen in surviving pigs (S. hyodysenteriae [1]; tiamulin 100 ppm): ≤ 8 days
mean clinical score (S. hyodysenteriae [1]; tiamulin 100 ppm): 30
mortality in words (S. hyodysenteriae [1]; tiamulin 100 ppm): reduced mortality compared to unmedicated controls but did not prevent some deaths
pigs with swine dysentery in post treatment period (S. hyodysenteriae [1]; tiamulin 100 ppm, last day of trial): one pig
animals that died or required euthanasia (S. hyodysenteriae [1]; [5]): 3 animals
daily live weight gain (DLWG) (S. hyodysenteriae [1]; [5]): 0.1
feed conversion ratio (FCR) (S. hyodysenteriae [1]; [5]): 6.4
elimination of S. hyodysenteriae (S. hyodysenteriae [2]; tiamulin 35 and 40 ppm, Taylor 1980): eliminate S. hyodysenteriae from faeces but not prevent the recovery from mucosal scrapings
treatment of swine dysentery (S. hyodysenteriae [2]; tiamulin 100 ppm, less severely affected animals, Taylor 1982): successfully used under experimental conditions
lesions (Mycoplasma gallisepticum; tiamulin and tylosin): only a few
mortality (Mycoplasma gallisepticum): no more than 5%
MIC (S. hyodysenteriae [3]): 0.3 µg/mL
MIC ([4]; 18 h, read-out: MIC mean): 4.5 µg/mL
MIC ([4]; read-out: MIC range): 0.125 to 16 µg/mL

C=C[C@]1(C)C[C@@H](OC(=O)CSC(C)(C)CNC(=O)[C@H](N)C(C)C)[C@]2(C)[C@H](C)CC[C@]3(CCC(=O)[C@H]32)[C@@H](C)[C@@H]1O [valnemulin hydrochloride, 14-O-[1-[(R)-2-amino-3-methylbutyrylamino]-2-methylpropan-2-ylthioacetyl]mutilin]
shedding of S. hyodysenteriae in faeces (S. hyodysenteriae [1]; all levels of valnemulin, after withdrawal of medicated feed): prevented by all levels of valnemulin
p of clinical scores, valnemulin vs tiamulin (S. hyodysenteriae [1]; days 3 to 10, all valnemulin groups): < 0.001
survival (S. hyodysenteriae [1]; valnemulin 50, 75, 100, 150 ppm): All pigs treated with valnemulin survived
recovery from clinical swine dysentery compared to tiamulin (S. hyodysenteriae [1]; valnemulin 50, 75, 100 and 150 ppm): reduction in the number of days that were needed to recover
pigs with clinical signs in post treatment period (S. hyodysenteriae [1]; valnemulin 50 ppm): one pig
pigs with clinical swine dysentery at post-mortem (S. hyodysenteriae [1]; valnemulin 50 ppm): 1 pig
pigs with reddening of the large intestine (S. hyodysenteriae [1]; valnemulin 50 ppm): one other pig
time to clinical signs after withdrawal of medicated feed (S. hyodysenteriae [1]; valnemulin 50 ppm): 4 days
post-mortem lesions of swine dysentery (S. hyodysenteriae [1]; valnemulin 75, 100 or 150 ppm): not seen
pigs with S. hyodysenteriae in mucosal scrapings (S. hyodysenteriae [1]; valnemulin 75 ppm): One pig
efficacy in words (S. hyodysenteriae [1]; valnemulin 100 ppm): highly effective
day by which clinical disease was not seen (S. hyodysenteriae [1]; valnemulin, all levels): ≤ 5 days
overall efficacy vs comparators (Mycoplasma gallisepticum; valnemulin 0.025% and 0.05% in drinking water): at least as good as or better than tiamulin at 0.05% or tylosin at 0.05% and very much better than Linco-Spectin
recovery of Mycoplasma at 23 days (Mycoplasma gallisepticum; valnemulin 3 groups, tylosin 0.05%): not recovered
mortality (Mycoplasma gallisepticum): no more than 5%
weight gains (Mycoplasma gallisepticum; valnemulin at all concentrations): higher than for the tiamulin treated groups and equal to the tylosin group
lesions (Mycoplasma gallisepticum; valnemulin highest and lowest doses): Lesions were not seen
MIC (S. hyodysenteriae [3]): 0.1 µg/mL
susceptibility of S. hyodysenteriae strains (S. hyodysenteriae [3]; all strains): susceptible
most active of the agents tested by (S. hyodysenteriae [3]; vs tiamulin, lincomycin, tylosin, dimetridazole): 3-600 fold
MIC ([4]; 18 h, read-out: MIC mean): 0.85 µg/mL
MIC ([4]; read-out: MIC range): 0.125 to 4 µg/mL
mean increase in activity compared with tiamulin ([4]; H. pleuropneumoniae): five and a half fold
